# Experimental data: paper PMC8728736, “A Reactivity-Based ^18F-Labeled Probe for PET Imaging of Oxidative Stress in Chemotherapy-Induced Cardiotoxicity” (Molecular Pharmaceutics, 2021)
# How the values were obtained:
# [1] = Vial stability by radio-HPLC; assay type: physicochemical; conditions: room temperature, 4 h
# Protocol: ^18F-FPBT (1–4 MBq) in 100% ethanol or 5% ethanol in PBS containing sodium ascorbate (0.01 mg/mL) was kept at room temperature for 4 h and then analyzed by radio-HPLC.
# [2] = Reactivity of 18F-FPBT to reactive oxygen species: hydroxyl radical; conditions: Fenton-reaction-generated hydroxyl radicals 100 μM, 5 min
# Protocol: (§1) ^18F-FPBT (0.5–2.0 MBq) was reacted with potassium superoxide (source of superoxide, 1 mg), hydrogen peroxide (100 μM), Fenton-reaction-generated hydroxyl radicals (100 μM), iron(II) sulfate heptahydrate (100 μM), tert-butyl hydroperoxide (100 μM), tert-butoxy radical (100 μM), and 3-morpholinosydnomine (source of peroxynitrite (100 μM)) for 5 min or diethylamine NONOate (source of nitric oxide, 100 μM) for 30 min at room temperature, after which it was subjected to radio-HPLC analysis and % oxidation was calculated.
# [3] = Reactivity of 18F-FPBT to reactive oxygen species: peroxynitrite; conditions: 3-morpholinosydnomine 100 μM, 5 min
# Protocol: as §1
# [4] = Ex vivo biodistribution in doxorubicin-treated and control rats after PET; set-up: species or system Wistar rats; conditions: for Ex vivo biodistribution, Blood / Ex vivo biodistribution, Bone / Ex vivo biodistribution, Heart / Ex vivo biodistribution, Kidney / Ex vivo biodistribution, Large Intestine / Ex vivo biodistribution, Liver / Ex vivo biodistribution, Lung / Ex vivo biodistribution, Muscle / Ex vivo biodistribution, Small Intestine / Ex vivo biodistribution, Spleen / Ex vivo biodistribution, Urine: 40 min post-injection
# Protocol: Male Wistar rats (280–300 g) were used in all experiments. Subcutaneous 7 day osmotic pumps (Alzet), containing either doxorubicin (Cambridge Bioscience, 30 mg/kg cumulative dose) or vehicle (sterile 0.9% NaCl), were inserted into rats under 2% isoflurane in 100% oxygen.
# Wistar rats that had received either doxorubicin treatment (male, 267 ± 19 g, n = 6) or saline (male, 303 ± 9 g, n = 4) via osmotic pumps for 7 days were injected with ^18F-FPBT (2.6 ± 1.5 MBq) via the tail vein on the PET/CT scanner bed. The time of injection coincided with the beginning of PET acquisition in order to obtain dynamic tracer uptake information. PET scans with the chest area in the field of vision were acquired for 30 min, followed by a CT scan, after which the animals were sacrificed and organs harvested, weighed, and gamma-counted as for the biodistribution protocol. The hearts were frozen in liquid nitrogen for gamma counting and oxidative stress biomarker assays. The PET data was reconstructed into three frames: 0–3 min, 3–10 min, and 10–30 min. For the time–activity curve, the PET data was reconstructed into 1 min per frame in the first 5 min and then 5 min per frame between 5 and 30 min. Using VivoQuant software (v3.0, inviCRO, LLC, Boston, USA), regions of interest (ROIs) were drawn in the left ventricle and blood inside the myocardium. Radioactivity uptake in the heart was calculated as a standard uptake value ratio (SUVR) between left ventricle and blood. Data are reported as mean ± SD. Statistical analysis was performed using one-way ANOVA with Tukey’s multiple comparisons test.
# [5] = Reactivity of 18F-FPBT to reactive oxygen species: tert-butoxy radical; conditions: 100 μM, 5 min
# Protocol: as §1
# [6] = Reactivity of 18F-FPBT to other biologically relevant ROS; conditions: ROS other than superoxide
# Protocol: as §1
# [7] = Reactivity of 18F-FPBT to reactive oxygen species: nitric oxide; conditions: diethylamine NONOate 100 μM, 30 min
# Protocol: as §1
# [8] = PET/CT imaging of healthy mice; assay type: in vivo, C57BL/6 mice; conditions: iv
# Protocol: C57BL/6 mice (male, 25 ± 2 g, n = 3) were placed on the PET scanner bed and injected with ^18F-FPBT (1.7 ± 0.4 MBq) through the tail vein at the start time of PET acquisition. A dynamic PET scan was performed for 60 min, followed by a CT scan and ex vivo biodistribution. The PET data was reconstructed into 5 frames of 60 s, 3 frames of 300 s, and 4 frames of 600 s. Regions of interest (ROIs) were drawn and quantified using VivoQuant software (v3.0, inviCRO, LLC, Boston, USA). Organ uptake was calculated as standard uptake values (SUV), and data are reported as mean ± SD.
# [9] = Post-mortem biodistribution in healthy rats; assay type: in vivo, Wistar rats; conditions: for Ex vivo biodistribution, Blood / Ex vivo biodistribution, Bone / Ex vivo biodistribution, Brain / Ex vivo biodistribution, Heart / Ex vivo biodistribution, Kidney / Ex vivo biodistribution, Large Intestine / Ex vivo biodistribution, Liver / Ex vivo biodistribution, Lung / Ex vivo biodistribution, Muscle / Ex vivo biodistribution, Spleen / Ex vivo biodistribution, Urine / Ex vivo biodistribution, Small Intestine: healthy rats, mean ± SD, n = 3
# Protocol: Wistar rats (male, 319 ± 20 g) were injected intravenously via the tail vein with either ^18F-FPBT (1.0 ± 0.4 MBq) or ^18F-FPBT-Ox (1.1 ± 0.5 MBq). The animals were sacrificed by cervical dislocation at 1, 5, or 30 min postinjection (n = 3/group). Organs and tissues of interest were harvested and weighed, and the radioactivity was measured in a gamma counter. Organ uptake was calculated as the percentage injected dose per gram of tissue mass (% ID/g). Data are reported as mean ± SD.
# [10] = Reactivity of 18F-FPBT to reactive oxygen species: superoxide; conditions: potassium superoxide, 5 min, ascorbate 1 mg/mL, n = 3
# Protocol: as §1
structure (smiles),measurement,setting,value
"[18F]CCCN1c2ccccc2SC1c1ccccc1 (stereo not drawn) [^18F-FPBT, 3-(3-[^18F]Fluoropropyl)-2-phenyl-2,3-dihydrobenzo[d]thiazole]",Vial stability,[1]; 5% ethanol in PBS with ascorbic acid (0.01 mg/mL),stable
same,Vial stability,[1]; pure ethanol,stable
same,Reactivity to hydroxyl radical,[2],inert
same,Reactivity to peroxynitrite,[3],some reactivity
same,"Post-mortem heart uptake in doxorubicin-treated animals, in words",[4]; 30 min post IV injection,did not show an increased uptake
same,"Ex vivo biodistribution, Blood","[4]; Doxorubicin group, n = 6",0.08 ± 0.06 % ID/g
same,"Ex vivo biodistribution, Bone","[4]; Doxorubicin group, n = 6",0.30 ±0.13 % ID/g
same,"Ex vivo biodistribution, Heart","[4]; Doxorubicin group, n = 6",0.43 ± 0.08 % ID/g
same,"Ex vivo biodistribution, Kidney","[4]; Doxorubicin group, n = 6",0.41 ± 0.14 % ID/g
same,"Ex vivo biodistribution, Large Intestine","[4]; Doxorubicin group, n = 6",1.42 ±2.07 % ID/g
same,"Ex vivo biodistribution, Liver","[4]; Doxorubicin group, n = 6",0.73 ± 0.24 % ID/g
same,"Ex vivo biodistribution, Lung","[4]; Doxorubicin group, n = 6",0.31 ± 0.12 % ID/g
same,"Ex vivo biodistribution, Muscle","[4]; Doxorubicin group, n = 6",0.10 ± 0.04 % ID/g
same,"Ex vivo biodistribution, Small Intestine","[4]; Doxorubicin group, n = 6",2.23 ± 1.43 % ID/g
same,"Ex vivo biodistribution, Spleen","[4]; Doxorubicin group, n = 6",0.15 ± 0.07 % ID/g
same,"Ex vivo biodistribution, Urine","[4]; Doxorubicin group, n = 6",12.5 ± 5.33 % ID/g
same,"Ex vivo biodistribution, Blood","[4]; Saline group, n = 4",0.07 ± 0.02 % ID/g
same,"Ex vivo biodistribution, Bone","[4]; Saline group, n = 4",0.25 ± 0.22 % ID/g
same,"Ex vivo biodistribution, Heart","[4]; Saline group, n = 4",0.42 ± 0.17 % ID/g
same,"Ex vivo biodistribution, Kidney","[4]; Saline group, n = 4",0.42 ± 0.19 % ID/g
same,"Ex vivo biodistribution, Large Intestine","[4]; Saline group, n = 4",0.38 ± 0.20 % ID/g
same,"Ex vivo biodistribution, Liver","[4]; Saline group, n = 4",0.65 ± 0.13 % ID/g
same,"Ex vivo biodistribution, Lung","[4]; Saline group, n = 4",0.29 ± 0.05 % ID/g
same,"Ex vivo biodistribution, Muscle","[4]; Saline group, n = 4",0.08 ± 0.02 % ID/g
same,"Ex vivo biodistribution, Small Intestine","[4]; Saline group, n = 4",3.33 ± 3.38 % ID/g
same,"Ex vivo biodistribution, Spleen","[4]; Saline group, n = 4",0.11 ± 0.02 % ID/g
same,"Ex vivo biodistribution, Urine","[4]; Saline group, n = 4",5.25 ± 3.05 % ID/g
same,Oxidation by tert-butoxy radical,[5],no oxidation was observed
same,Reactivity to other biologically relevant ROS,[6],little or no reactivity
same,Reactivity to nitric oxide,[7],some reactivity
same,"Background retention in heart, lungs, spleen and brain",[8],low nonspecific background retention
same,Time to excretion by renal and hepatobiliary routes,[8],less than 1 h
same,Blood clearance,[8]; dynamic PET 60 min,fast blood clearance
same,"Route of clearance / excretion, in words","[9]; healthy Wistar rats, iv",excreted by both renal and hepatobiliary routes
same,"Uptake by major organs (brain, heart, lung, spleen), in words","[9]; healthy Wistar rats, iv",rapid uptake
same,"Ex vivo biodistribution, Blood","[9]; iv, 1 min",0.12 ± 0.05 % ID/g
same,"Ex vivo biodistribution, Bone","[9]; iv, 1 min",0.14 ± 0.01 % ID/g
same,"Ex vivo biodistribution, Brain","[9]; iv, 1 min",0.57 ± 0.04 % ID/g
same,"Ex vivo biodistribution, Heart","[9]; iv, 1 min",1.33 ± 0.15 % ID/g
same,"Ex vivo biodistribution, Kidney","[9]; iv, 1 min",1.58 ± 0.11 % ID/g
same,"Ex vivo biodistribution, Large Intestine","[9]; iv, 1 min",0.21 ± 0.03 % ID/g
same,"Ex vivo biodistribution, Liver","[9]; iv, 1 min",1.52 ± 0.25 % ID/g
same,"Ex vivo biodistribution, Lung","[9]; iv, 1 min",0.66 ± 0.15 % ID/g
same,"Ex vivo biodistribution, Muscle","[9]; iv, 1 min",0.08 ± 0.03 % ID/g
same,"Ex vivo biodistribution, Spleen","[9]; iv, 1 min",0.67 ± 0.09 % ID/g
same,"Ex vivo biodistribution, Urine","[9]; iv, 1 min",0.02 ± 0.01 % ID/g
same,"Ex vivo biodistribution, Blood","[9]; iv, 5 min",0.06 ± 0.00 % ID/g
same,"Ex vivo biodistribution, Bone","[9]; iv, 5 min",0.18 ± 0.18 % ID/g
same,"Ex vivo biodistribution, Brain","[9]; iv, 5 min",0.33 ± 0.04 % ID/g
same,"Ex vivo biodistribution, Heart","[9]; iv, 5 min",0.37 ± 0.08 % ID/g
same,"Ex vivo biodistribution, Kidney","[9]; iv, 5 min",0.60 ± 0.27 % ID/g
same,"Ex vivo biodistribution, Large Intestine","[9]; iv, 5 min",0.13 ± 0.02 % ID/g
same,"Ex vivo biodistribution, Liver","[9]; iv, 5 min",1.75 ± 0.19 % ID/g
same,"Ex vivo biodistribution, Lung","[9]; iv, 5 min",0.34 ± 0.03 % ID/g
same,"Ex vivo biodistribution, Muscle","[9]; iv, 5 min",0.05 ± 0.03 % ID/g
same,"Ex vivo biodistribution, Small Intestine","[9]; iv, 5 min",0.53 ± 0.31 % ID/g
same,"Ex vivo biodistribution, Spleen","[9]; iv, 5 min",0.18 ± 0.01 % ID/g
same,"Ex vivo biodistribution, Urine","[9]; iv, 5 min",1.22 ± 0.89 % ID/g
same,"Ex vivo biodistribution, Blood","[9]; iv, 30 min",0.03 ± 0.00 % ID/g
same,"Ex vivo biodistribution, Bone","[9]; iv, 30 min",0.13 ± 0.02 % ID/g
same,"Ex vivo biodistribution, Brain","[9]; iv, 30 min",0.06 ± 0.01 % ID/g
same,"Ex vivo biodistribution, Heart","[9]; iv, 30 min",0.20 ± 0.04 % ID/g
same,"Ex vivo biodistribution, Kidney","[9]; iv, 30 min",0.17 ± 0.00 % ID/g
same,"Ex vivo biodistribution, Large Intestine","[9]; iv, 30 min",0.10 ± 0.03 % ID/g
same,"Ex vivo biodistribution, Liver","[9]; iv, 30 min",0.47 ± 0.13 % ID/g
same,"Ex vivo biodistribution, Lung","[9]; iv, 30 min",0.18 ± 0.01 % ID/g
same,"Ex vivo biodistribution, Muscle","[9]; iv, 30 min",0.08 ± 0.02 % ID/g
same,"Ex vivo biodistribution, Small Intestine","[9]; iv, 30 min",5.01 ± 0.90 % ID/g
same,"Ex vivo biodistribution, Spleen","[9]; iv, 30 min",0.05 ± 0.01 % ID/g
same,"Ex vivo biodistribution, Urine","[9]; iv, 30 min",3.79 ± 2.12 % ID/g
same,Defluorination in vivo (radioactivity accumulation in the bone),[9]; rats and mice,inert toward defluorination
same,% oxidation by superoxide in the presence of ascorbate,[10],31 ± 5%
